US20110117081A1, “FUNCTIONALIZED PYRROLIDINES AND USE THEREOF AS IAP INHIBITORS” (priority 2008, published 2011)

tested on: Colorectal carcinoma HCT116 cells; experiment: HCT116 + ETR1 cell viability assay (MTT); type: cell-based; conditions: with ETR1 (40 ng/ml), 72 hrs
Experimental: Colorectal carcinoma HCT116 cells (ATCC# CCL-247) were cultured as monolayers in 96 well plates at a density of 2000 cells per well in 100 ul of McCoy's 5a medium (HyClone) supplemented with 2.2 g/L sodium bicarbonate (Gibco), 10% FBS (HyClone) and 1% penecillin/streptomycin (HyClone) for 24 hours. Triplicate wells of cells were treated for 72 hrs at 37° C. (5% CO2) with 50 ul of HGS agonistic Trail receptor antibody, ETR1 (40 ng/ml) in combination with 50 ul of diluted compound (0.01 to 10000 nM). Metabolic viability of remaining cells was assessed by MTT assay.
The percentage viability of compound-treated cells was expressed as a fraction of the absorbance/luminescence signal obtained from non-treated cells. EC50 values (corresponding to 50% cell survival in the presence of compound as compared to untreated controls) were calculated from MTT survival curves (HCT116 and SKOV3) using BioAssay software (CambridgeSoft) and from Cell Titer-Glo survival curves (synovioycte and Jurkat cells) using GraphPad Prism (Graph Pad Software Inc.). In the below chart, EC50 values are summarized as follows: a=EC50 of less than 10 nM; b=EC50 of 10-100 nM; and c=EC50 of greater than 100 nM.

Row | Compound | EC50 [nM]
1 | CN[C@@H](C)C(=O)N[C@H](C(=O)N1C[C@@H](NC(=O)c2ccc(C(=O)N[C@H]3C[C@@H](C(=O)N[C@H](C)c4ccc(F)cc4)N(C(=O)[C@@H](NC(=O)[C@H](C)NC)C4CCOCC4)C3)cc2)C[C@H]1C(=O)N[C@H](C)c1ccc(F)cc1)C1CCOCC1 [Compound 42] | 10 to 100
2 | CN[C@@H](C)C(=O)N[C@H](C(=O)N1C[C@@H](NC(=O)c2ccc(C(=O)N[C@H]3C[C@@H](C(=O)Nc4ccccc4-c4ccccc4)N(C(=O)[C@@H](NC(=O)[C@H](C)NC)C4CCCCC4)C3)cc2)C[C@H]1C(=O)Nc1ccccc1-c1ccccc1)C1CCCCC1 [Compound 52] | < 10
3 | CN[C@@H](C)C(=O)N[C@H](C(=O)N1C[C@@H](NC(=O)c2ccc(C(=O)N[C@H]3C[C@@H](C(=O)N[C@H](C)c4ccc(OC)cc4)N(C(=O)[C@@H](NC(=O)[C@H](C)NC)C4CCCCC4)C3)cc2)C[C@H]1C(=O)N[C@H](C)c1ccc(OC)cc1)C1CCCCC1 [Compound 34] | < 10
4 | CN[C@@H](C)C(=O)N[C@H](C(=O)N1C[C@@H](NC(=O)c2ccc(C(=O)N[C@H]3C[C@@H](C(=O)NCc4ccc(F)cc4)N(C(=O)[C@@H](NC(=O)[C@H](C)NC)C4CCCCC4)C3)cc2)C[C@H]1C(=O)NCc1ccc(F)cc1)C1CCCCC1 [Compound 38] | < 10
5 | CCCN[C@@H](C)C(=O)N[C@H](C(=O)N1C[C@@H](NC(=O)c2ccc(C(=O)N[C@H]3C[C@@H](C(=O)N[C@@H]4CCCc5ccccc54)N(C(=O)[C@@H](NC(=O)[C@H](C)NCCC)C4CCCCC4)C3)cc2)C[C@H]1C(=O)N[C@@H]1CCCc2ccccc21)C1CCCCC1 [Compound 56] | < 10
6 | CN[C@@H](C)C(=O)N[C@H](C(=O)N1C[C@@H](NC(=O)c2ccc(C(=O)N[C@H]3C[C@@H](C(=O)N4CCc5ccccc5C4)N(C(=O)[C@@H](NC(=O)[C@H](C)NC)C4CCCCC4)C3)cc2)C[C@H]1C(=O)N1CCc2ccccc2C1)C1CCCCC1 [Compound 35] | 10 to 100
7 | CN[C@@H](C)C(=O)N[C@H](C(=O)N1C[C@@H](NC(=O)c2ccc(C(=O)N[C@H]3C[C@@H](C(=O)N[C@@H]4CCCc5ccccc54)N(C(=O)[C@@H](NC(=O)[C@H](C)NC)C4CCOCC4)C3)cc2)C[C@H]1C(=O)N[C@@H]1CCCc2ccccc21)C1CCOCC1 [Compound 46] | 10 to 100
8 | CN[C@@H](C)C(=O)N[C@H](C(=O)N1C[C@@H](NC(=O)c2ccc(C(=O)N[C@H]3C[C@@H](C(=O)Nc4ccccc4-c4ncccn4)N(C(=O)[C@@H](NC(=O)[C@H](C)NC)C4CCCCC4)C3)cc2)C[C@H]1C(=O)Nc1ccccc1-c1ncccn1)C1CCCCC1 [Compound 45] | 10 to 100
9 | CN[C@@H](C)C(=O)N[C@H](C(=O)N1C[C@@H](NC(=O)c2ccc(C(=O)N[C@H]3C[C@@H](C(=O)Nc4ccccc4)N(C(=O)[C@@H](NC(=O)[C@H](C)NC)C4CCCCC4)C3)cc2)C[C@H]1C(=O)Nc1ccccc1)C1CCCCC1 [Compound 47] | < 10
10 | CN[C@@H](C)C(=O)N[C@H](C(=O)N1C[C@@H](NC(=O)c2ccc(C(=O)N[C@H]3C[C@@H](C(=O)N[C@@H]4CCCc5ccccc54)N(C(=O)[C@@H](NC(=O)[C@H](C)NC)C4CCCC4)C3)cc2)C[C@H]1C(=O)N[C@@H]1CCCc2ccccc21)C1CCCC1 [Compound 43] | < 10
11 | CN[C@@H](C)C(=O)N[C@H](C(=O)N1C[C@@H](NC(=O)c2ccc(C(=O)N[C@H]3C[C@@H](C(=O)NC(C)(C)c4ccccc4)N(C(=O)[C@@H](NC(=O)[C@H](C)NC)C4CCCCC4)C3)cc2)C[C@H]1C(=O)NC(C)(C)c1ccccc1)C1CCCCC1 [Compound 37] | < 10
12 | CN[C@@H](C)C(=O)N[C@H](C(=O)N1C[C@@H](NC(=O)c2cnc(C(=O)N[C@H]3C[C@@H](C(=O)N[C@@H]4CCOc5ccccc54)N(C(=O)[C@@H](NC(=O)[C@H](C)NC)C4CCCCC4)C3)cn2)C[C@H]1C(=O)N[C@@H]1CCOc2ccccc21)C1CCCCC1 [Compound 54] | < 10

Results, then the compound that gave them:

Row | EC50 [nM] | Compound
13 | 10 to 100 | CN[C@@H](C)C(=O)N[C@H](C(=O)N1C[C@@H](NC(=O)c2ccc(C(=O)N[C@H]3C[C@@H](C(=O)N[C@H]4CCOc5ccccc54)N(C(=O)[C@@H](NC(=O)[C@H](C)NC)C4CCCCC4)C3)cc2)C[C@H]1C(=O)N[C@H]1CCOc2ccccc21)C1CCCCC1 [Compound 58]
14 | 10 to 100 | CN[C@H](C(=O)N[C@H](C(=O)N1C[C@@H](NC(=O)c2ccc(C(=O)N[C@H]3C[C@@H](C(=O)N[C@@H]4CCCc5ccccc54)N(C(=O)[C@@H](NC(=O)[C@@H](NC)C4CC4)C4CCCCC4)C3)cc2)C[C@H]1C(=O)N[C@@H]1CCCc2ccccc21)C1CCCCC1)C1CC1 [Compound 50]
15 | < 10 | CN[C@@H](C)C(=O)N[C@H](C(=O)N1C[C@@H](NC(=O)c2ccc(C(=O)N[C@H]3C[C@@H](C(=O)N[C@@H]4CCCc5ccccc54)N(C(=O)[C@@H](NC(=O)[C@H](C)NC)C4CCC4)C3)cc2)C[C@H]1C(=O)N[C@@H]1CCCc2ccccc21)C1CCC1 [Compound 44]
16 | 10 to 100 | CN[C@@H](C)C(=O)N[C@H](C(=O)N1C[C@@H](NC(=O)c2ccc(C(=O)N[C@H]3C[C@@H](C(=O)N(C)[C@H](C)c4ccccc4)N(C(=O)[C@@H](NC(=O)[C@H](C)NC)C4CCCCC4)C3)cc2)C[C@H]1C(=O)N(C)[C@H](C)c1ccccc1)C1CCCCC1 [Compound 48]
17 | < 10 | CN[C@@H](C)C(=O)N[C@H](C(=O)N1C[C@@H](NC(=O)c2ccc(C(=O)N[C@H]3C[C@@H](C(=O)N[C@@H]4CCOc5cc(F)ccc54)N(C(=O)[C@@H](NC(=O)[C@H](C)NC)C4CCCCC4)C3)cc2)C[C@H]1C(=O)N[C@@H]1CCOc2cc(F)ccc21)C1CCCCC1 [Compound 36]
18 | 10 to 100 | CN[C@@H](C)C(=O)N[C@H](C(=O)N1C[C@@H](NC(=O)c2ccc(C(=O)N[C@H]3C[C@@H](C(=O)Nc4cc(C)nn4-c4ccccc4)N(C(=O)[C@@H](NC(=O)[C@H](C)NC)C4CCCCC4)C3)cc2)C[C@H]1C(=O)Nc1cc(C)nn1-c1ccccc1)C1CCCCC1 [Compound 49]
19 | 10 to 100 | CN[C@@H](C)C(=O)N[C@H](C(=O)N1C[C@@H](NC(=O)c2ccc(C(=O)N[C@H]3C[C@@H](C(=O)N4CC[C@H](c5ccccc5)C4)N(C(=O)[C@@H](NC(=O)[C@H](C)NC)C4CCCCC4)C3)cc2)C[C@H]1C(=O)N1CC[C@H](c2ccccc2)C1)C1CCCCC1 [Compound 39]
20 | 10 to 100 | CN[C@@H](C)C(=O)N[C@H](C(=O)N1C[C@@H](NC(=O)c2ccc(C(=O)N[C@H]3C[C@@H](C(=O)N[C@H]4CCCc5ccccc54)N(C(=O)[C@@H](NC(=O)[C@H](C)NC)C4CCCCC4)C3)cc2)C[C@H]1C(=O)N[C@H]1CCCc2ccccc21)C1CCCCC1 [Compound 57]
21 | < 10 | CN[C@@H](C)C(=O)N[C@H](C(=O)N1C[C@@H](NC(=O)c2cnc(C(=O)N[C@H]3C[C@@H](C(=O)N[C@@H]4CCCc5ccccc54)N(C(=O)[C@@H](NC(=O)[C@H](C)NC)C4CCCCC4)C3)cn2)C[C@H]1C(=O)N[C@@H]1CCCc2ccccc21)C1CCCCC1 [Compound 55]
22 | < 10 | CCN[C@@H](C)C(=O)N[C@H](C(=O)N1C[C@@H](NC(=O)c2ccc(C(=O)N[C@H]3C[C@@H](C(=O)N[C@@H]4CCCc5ccccc54)N(C(=O)[C@@H](NC(=O)[C@H](C)NCC)C4CCCCC4)C3)cc2)C[C@H]1C(=O)N[C@@H]1CCCc2ccccc21)C1CCCCC1 [Compound 53]
23 | < 10 | CN[C@@H](C)C(=O)N[C@H](C(=O)N1C[C@@H](NC(=O)c2ccc(C(=O)N[C@H]3C[C@@H](C(=O)N[C@@H]4CCCc5ccc(F)cc54)N(C(=O)[C@@H](NC(=O)[C@H](C)NC)C4CCCCC4)C3)cc2)C[C@H]1C(=O)N[C@@H]1CCCc2ccc(F)cc21)C1CCCCC1 [Compound 33]
